Measured values: article PMC5670201 (Scientific Reports, 2017)
pKd: −log10 of the molar value. Ends that are not written are not given here.

Columns and labels:
Human Serum Albumin = Human Serum Albumin (Homo sapiens, UniProt P02768); assay: Biacore SPR, antibody variable domain peptides and antibodies against human serum albumin; type: binding; conditions: for binding to human serum albumin: Biacore SPR screen, immobilized HSA and vice versa; for Kd: human, Biacore SPR, CM5 amine coupling, peptide over immobilized HSA and vice versa, pM-uM, 1:1 fit, read-out: Kinetic Binding Parameters Against Human Serum Albumin: KD
Text: The 3D structure of the positive variable region peptides were predicted by PEPFOLD 3.0 to compare to their beta hairpin structure within the full antibody[9]-[11] (Fig. 4d). […] Peptides were run in the pM-uM concentration range. […] (b) Multiple sequence alignment of the variable region peptides in question, performed by Clustal Omega. […] (d) 3D structure prediction of peptides in solution performed by PEP-FOLD 3.0, visualized in Chimera. […] Pembrolizumab included as a negative control.

HSA Peptide 40 = biological target: T1, HSA Peptide 40 (Homo sapiens, UniProt P02768); assay: biochemical; type: binding; conditions: for binding to HSA Peptide 40: Biacore SPR screen, immobilized HSA Peptide 40 and vice versa
T1 construct: HSA 40 (479-496); purchased New England Peptide (Gardner, MA, USA)
Experimental: All peptides were run in the pM-uM concentration ranges. […] Short gaps in binding curves at transition times are from removal of solvent spikes during analysis. Binding kinetics were determined via Biacore Evaluation Software analysis of SPR sensograms. […] Structure, PDB 1BJ1, was visualized using UCSF Chimera.
The 3D structure of the positive variable region peptides were predicted by PEPFOLD 3.0 to compare to their beta hairpin structure within the full antibody[9]–[11] (Fig. 4d).
Peptides were run in the pM-uM concentration range. […] (b) Multiple sequence alignment of the variable region peptides in question, performed by Clustal Omega. […] (d) 3D structure prediction of peptides in solution performed by PEP-FOLD 3.0, visualized in Chimera. […] Pembrolizumab included as a negative control.
Peptides were re-suspended and stored in HBS running buffer at either 5 or 10 mg/ml, with up to 10% DMSO added as needed. All antibodies, peptides, as well as HSA, were immobilized on Biacore (GE Healthcare, Chicago, IL) CM5 chips via amine coupling according to manufacture protocol. Immobilization scouting was performed with pH 4.0–5.5 acetate at micromolar concentration ranges, to determine ideal immobilization conditions. […] All peptides and proteins were screened at multiple concentrations from pico to millimolarity, with an association time of 120 to 180 seconds and a dissociation time from 180 to 1200 seconds. Binding kinetics were determined using Biacore Evaluation Software and a 1:1 fit model.
The mixture was frozen, evaporated, and re-suspended in HPLC grade water with 0.1% trifluoroacetic acid. The digest was applied to a Waters X-Bridge Protein BEH C4 column (Waters, Milford, MA) and eluted off at a flow rate of 1 ml/min and a gradient of 0–60% Acetonitrile with 0.1% trifluroacetic acid over 60 minutes.

binding to human serum albumin (Human Serum Albumin) | Kd (Human Serum Albumin) | binding to HSA Peptide 40 (HSA Peptide 40) | pKd (HSA Peptide 40) | kon (HSA Peptide 40; read-out: Kinetic Binding Parameters against HSA Peptide 40: kon) | Compound
bound both | 2.48e+06 pM | bound both | – | – | CC(C)[C@H](NC(=O)[C@H](CC(N)=O)NC(=O)[C@H](Cc1ccccc1)NC(=O)[C@H](Cc1ccc(O)cc1)NC(=O)[C@H](Cc1c[nH]c2ccccc12)NC(=O)[C@H](CC(=O)O)NC(=O)CNC(=O)CNC(=O)[C@H](Cc1ccc(O)cc1)NC(=O)[C@H](Cc1ccc(O)cc1)NC(=O)[C@@H](NC(=O)[C@H](CO)NC(=O)[C@H](CCCNC(=N)N)NC(=O)[C@H](C)NC(=O)[C@H](CS)NC(=O)[C@@H](N)Cc1ccc(O)cc1)[C@@H](C)O)C(=O)N[C@@H](Cc1c[nH]c2ccccc12)C(=O)NCC(=O)N[C@@H](C)C(=O)NCC(=O)O [RVP1]
– | 2.37e+06 pM | – | – | – | DTAVYYCAKYPHYYGSSHWYF [BVP1]

Second part, the compound before the results:

Compound | binding to human serum albumin (Human Serum Albumin) | Kd (Human Serum Albumin) | binding to HSA Peptide 40 (HSA Peptide 40) | pKd (HSA Peptide 40) | kon (HSA Peptide 40; read-out: Kinetic Binding Parameters against HSA Peptide 40: kon)
HYYGSSHWYFDVWGQ [Bevacizumab Heavy Chain 11] | – | – | – | 6.30 | 357 M⁻¹ s⁻¹
RVP2: Rituximab Variable Domain Peptide 2 (101-120) | binding neither | – | binding neither | – | –
rituximab: commercial monoclonal antibody, anti-CD20 | do not bind HSA | – | – | – | –
